We go through one compound from patent US11033640B2, “Enteric CT contrast material based on low-z atoms” (priority 2013, dated 2021).

The structures appear in SMILES notation.

The test system of the data set is rabbit.

Take `[Mg+2].[OH-].[OH-]` [Mg(OH)2, magnesium hydroxide]: the Toxicity or discomfort entry (rabbit model, high-concentration suspension diluted to 400 HU) is given as “without observing obvious toxicity or discomfort”. For the same compound, the “Differentiation from iodinated intravascular contrast, two-material decomposition” value (rabbit, dual energy CT) is “without interfering signal from the intravascular iodinated contrast material”.
